Test results as given in patent US9827219B2, “Compositions and methods for lowering levels of high-sensitivity C-reactive protein (HS-CRP) in a subject” (priority 2012, dated 2017).

Experiments:
Format in all cases: in vivo, human
[1] = test system: RLP-C; experiment: RLP-C in patients with diabetes mellitus-2 (Example 2); conditions: 4 g/day, 12 weeks, on statin
Excerpt: (§1) Parameters (a)-(y) can be measured in accordance with any clinically acceptable methodology. For example, triglycerides, total cholesterol, HDL-C and fasting blood sugar can be sample from serum and analyzed using standard photometry techniques. VLDL-TG, LDL-C and VLDL-C can be calculated or determined using serum lipoprotein fractionation by preparative ultracentrifugation and subsequent quantitative analysis by refractometry or by analytic ultracentrifugal methodology. Apo A1, Apo B and hsCRP can be determined from serum using standard nephelometry techniques. Lipoprotein (a) can be determined from serum using standard turbidimetric immunoassay techniques. LDL particle number and particle size can be determined using nuclear magnetic resonance (NMR) spectrometry. Remnants lipoproteins and LDL-phospholipase A2 can be determined from EDTA plasma or serum and serum, respectively, using enzymatic immunoseparation techniques. Oxidized LDL, intercellular adhesion molecule-1 and interleukin-2 levels can be determined from serum using standard enzyme immunoassay techniques. These techniques are described in detail in standard textbooks, for example Tietz Fundamentals of Clinical Chemistry, 6th Ed. (Burtis, Ashwood and Borter Eds.), WB Saunders Company.
The effect of >96% E-EPA on lipid and inflammatory parameters was evaluated in patients with fasting triglyceride levels ≧150 mg/dl and <499 mg/dl on concomitant statin therapy. Patients with diabetes mellitus-2 were randomized and treated with either 2 g/day >96% E-EPA, 4 g/day >96%, or placebo for twelve weeks. At the end of the treatment period, several diabetes efficacy endpoints were evaluated including, TG, LDL-C, non-HDL-C, VLDL-C, Lp-PLA2, Apo B, TC, HDL-C, VLDL-TG, hs-CRP, oxLDL, and RLP-C.

[2] = test system: Apo B; experiment: Apo B in patients with diabetes mellitus-2 (Example 2); conditions: 4 g/day, 12 weeks, on statin
Excerpt: as §1, with “(Burtis, Ashwood and Borter Eds.), WB Saunders Company.” left out
The effect of >96% E-EPA on lipid and inflammatory parameters was evaluated in patients with fasting triglyceride levels ≧150 mg/dl and <499 mg/dl on concomitant statin therapy. […]

[3] = test system: Lp-PLA2; experiment: ANCHOR study, Lp-PLA2; conditions: ANCHOR ITT, week 12
Excerpt: as §1
A multi-center, placebo-controlled, randomized, double-blind, 12-week study was performed to evaluate the efficacy and safety of >96% E-EPA in patients with fasting triglyceride levels ≧200 mg/dl and <500 mg/dl despite statin therapy (the mean of two qualifying entry values needed to be ≧185 mg/dl and at least one of the values needs to be ≧200 mg/dl). The primary objective of the study was to determine the efficacy of >96% E-EPA 2 g daily and 4 g daily, compared to placebo, in lowering fasting TG levels in patients with high risk for cardiovascular disease and with fasting TG levels ≧200 mg/dL and <500 mg/dL, despite treatment to LDL-C goal on statin therapy. […]

[4] = test system: IL-6; experiment: ANCHOR study, IL-6; conditions: ANCHOR ITT, week 12
Procedure: A multi-center, placebo-controlled, randomized, double-blind, 12-week study was performed to evaluate the efficacy and safety of >96% E-EPA in patients with fasting triglyceride levels ≧200 mg/dl and <500 mg/dl despite statin therapy (the mean of two qualifying entry values needed to be ≧185 mg/dl and at least one of the values needs to be ≧200 mg/dl). The primary objective of the study was to determine the efficacy of >96% E-EPA 2 g daily and 4 g daily, compared to placebo, in lowering fasting TG levels in patients with high risk for cardiovascular disease and with fasting TG levels ≧200 mg/dL and <500 mg/dL, despite treatment to LDL-C goal on statin therapy.
The population for this study was men and women >18 years of age with a body mass index ≦45 kg/m^2 with fasting TG levels greater than or equal to 200 mg/dl and less than 500 mg/dl and on a stable does of statin therapy (with or without ezetimibe). The statin must have been atorvostatin, rosuvastatin or simvastatin. The dose of statin must have been stable for ≧4 weeks prior to the LDL-C/TG baseline qualifying measurement for randomization. The statin dose was optimal such that the patients are at their LDL-C goal at the LDL-C/TG baseline qualifying measurements. The same statin at the same dose was continued until the study ended.
Approximately 648 patients were randomized at approximately 80 centers in the U.S. The study was a 18- to 20-week, Phase 3, multi-center study consisting of 2 study periods: (1) A 6- to 8-week screening period that included a diet and lifestyle stabilization, a non-statin lipid-altering treatment washout, and an LDL-C and TG qualifying period and (2) A 12-week, double-blind, randomized, placebo-controlled treatment period.
After confirmation of qualifying fasting LDL-C and TG values, eligible patients entered a 12-week, randomized, double-blind treatment period. At Visit 4 (Week 0), patients were randomly assigned to 1 of the following treatment groups: • >96% E-EPA 2 g daily, • >96% E-EPA 4 g daily, or • Placebo.
Approximately 216 patients per treatment group were randomized in this study. Stratification was by type of statin (atorvastatin, rosuvastatin or simvastatin), the presence of diabetes, and gender. The lower-efficacy statin regimen included administration of 5-10 mg of simvastatin per day; the medium-efficacy statin regimens included administration of 5-10 mg rosuvastatin per day, 10-20 mg of atorvastatin per day, 20-40 mg of simvastatin per day, or 10-20 mg of simvastatin and 5-10 mg of ezetimibe per day; and the higher-efficacy statin regimens included administration of 20-40 mg of rosuvastatin per day, 40-80 mg of atorvastatin per day, 80 mg of simvastatin per day, or 40-80 mg of simvastatin and 5-10 mg of ezetimibe per day. […]

[5] = well-controlled diabetes (HbA1c < median of 6.8%)

For `CC/C=C\C/C=C\C/C=C\C/C=C\C/C=C\CCCC(=O)OCC` [AMR101, all-cis eicosa-5,8,11,14,17-pentaenoic acid ethyl ester], the “Median placebo-adjusted percent change in RLP-C from baseline to study end” value ([1]; less-controlled diabetes (HbA1c ≧ median of 6.8%)) was −21.3%, the “Median placebo-adjusted percent change in RLP-C from baseline to study end” value ([1]; total diabetes) was −25.0% and the “Median placebo-adjusted percent change in RLP-C from baseline to study end” value [1, 5] was −26.7%. For the same compound, the “Median placebo-adjusted percent change in Apo B from baseline to study end” value ([2]; total diabetes) was −9.5%, the “Median placebo-adjusted percent change in Apo B from baseline to study end” value [2, 5] was −6.1% and the “Lp-PLA2 change from baseline (median)” value ([3]; 2 g/day) was −1.8%. The “Lp-PLA2 change from baseline (median)” value ([3]; 4 g/day) was −12.8%, the “Lp-PLA2 end-of-treatment value (median)” value ([3]; 4 g/day) was 160.0 ng/mL and the “IL-6 change from baseline (median)” value ([4]; 2 g/day) was 6.9%. The “IL-6 end-of-treatment value (median)” value ([4]; 2 g/day) was 2.7 pg/mL, the “IL-6 change from baseline (median)” value ([4]; 4 g/day) was 3.1% and the “IL-6 end-of-treatment value (median)” value ([4]; 4 g/day) was 2.6 pg/mL.
